Tested on: 171881-019-R-J1-PDC tumor spheroids, viability
Assay: Anticancer human tumor 171881-019-R-J1-PDC patient-derived invasive breast carcinoma cell line growth inhibition [GQUAD]
Details: spheroids with HUVEC and MSC; for IC50: curve of first compound; for viability, T/C: stronger effect = lower value
In short: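 Tumor cells were grown as complex spheroids with HUVEC endothelial cells and mesenchymal stem cells as stroma. G-quadruplex stabilizers were combined with targeted agents over half-log dilutions from near the clinical Cmax, or from 10 microM.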

[1] = second compound 0.0316 µM, first compound 0.0316 µM
[2] = second compound 0.0316 µM, first compound 0.1 µM
[3] = second compound 0.0316 µM, first compound 0.316 µM
[4] = second compound 0.0316 µM, first compound 1 µM
[5] = second compound 0.0316 µM, first compound 3.16 µM
[6] = second compound 0.0316 µM, first compound 10 µM
[7] = second compound 0.1 µM, first compound 0.0316 µM
[8] = second compound 0.1 µM, first compound 0.1 µM
[9] = second compound 0.1 µM, first compound 0.316 µM
[10] = second compound 0.1 µM, first compound 1 µM
[11] = second compound 0.1 µM, first compound 3.16 µM
[12] = second compound 0.1 µM, first compound 10 µM
[13] = second compound 0.316 µM, first compound 0.0316 µM
[14] = second compound 0.316 µM, first compound 0.1 µM
[15] = second compound 0.316 µM, first compound 0.316 µM
[16] = second compound 0.316 µM, first compound 1 µM
[17] = second compound 0.316 µM, first compound 3.16 µM
[18] = second compound 0.316 µM, first compound 10 µM
[19] = second compound 1 µM, first compound 0.0316 µM
[20] = second compound 1 µM, first compound 0.1 µM
[21] = second compound 1 µM, first compound 0.316 µM
[22] = second compound 1 µM, first compound 1 µM
[23] = second compound 1 µM, first compound 3.16 µM
[24] = second compound 1 µM, first compound 10 µM
[25] = second compound 3.16 µM, first compound 0.0316 µM
[26] = second compound 3.16 µM, first compound 0.1 µM
[27] = second compound 3.16 µM, first compound 0.316 µM
[28] = second compound 3.16 µM, first compound 1 µM
[29] = second compound 3.16 µM, first compound 3.16 µM
[30] = second compound 3.16 µM, first compound 10 µM
[31] = second compound 10 µM, first compound 0.0316 µM
[32] = second compound 10 µM, first compound 0.1 µM
[33] = second compound 10 µM, first compound 0.316 µM
[34] = second compound 10 µM, first compound 1 µM
[35] = second compound 10 µM, first compound 3.16 µM
[36] = second compound 10 µM, first compound 10 µM
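Further: spheroids exposed to compounds for 7 days.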
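Wherever viability, T/C is given: 100% = DMSO vehicle control viability.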

Work on CC1COCCN1c1cc(C2(O)CC3CCC(C2)O3)c2cnn(-c3ccn[nH]3)c2n1 (stereo unspecified) + Cc1[nH]c2ccc(F)cc2c1-c1nc2c3cccnc3c3ncccc3c2[nH]1 yielded an IC50 (second compound 0.0316 µM) of 34.5 nM, an IC50 (second compound 0.1 µM) of 38.1 nM and an IC50 (second compound 0.316 µM) of 33.8 nM. For the same compound, the IC50 (second compound 1 µM) was less than 31.6 nM, the IC50 (second compound 3.16 µM) was less than 31.6 nM and the IC50 (second compound 10 µM) was less than 31.6 nM. For the same compound, the viability, T/C [1] was 52.8%, the viability, T/C [2] was 20.5% and the viability, T/C [3] was 10.3%. It also gave a viability, T/C [4] of 5.52%, a viability, T/C [5] of 4.37% and a viability, T/C [6] of 4.08%. For the same compound, the viability, T/C [7] was 55.6%, the viability, T/C [8] was 20.6% and the viability, T/C [9] was 9.69%. The viability, T/C [10] was 5.6%, the viability, T/C [11] was 3.81% and the viability, T/C [12] was 3.56%. It also gave a viability, T/C [13] of 52.1%, a viability, T/C [14] of 20.3% and a viability, T/C [15] of 9.82%. For the same compound, the viability, T/C [16] was 5.18%, the viability, T/C [17] was 4.67% and the viability, T/C [18] was 3.78%. It also gave a viability, T/C [19] of 36.9%, a viability, T/C [20] of 15.5% and a viability, T/C [21] of 9.46%. It also gave a viability, T/C [22] of 5.53%, a viability, T/C [23] of 5.14% and a viability, T/C [24] of 3.53%. For the same compound, the viability, T/C [25] was 15.7%, the viability, T/C [26] was 10.5% and the viability, T/C [27] was 6.92%. For the same compound, the viability, T/C [28] was 4.31%, the viability, T/C [29] was 4.06% and the viability, T/C [30] was 1.96%. The viability, T/C [31] was 14.8%, the viability, T/C [32] was 12.1% and the viability, T/C [33] was 7.38%. It also gave a viability, T/C [34] of 5.1%, a viability, T/C [35] of 4.66% and a viability, T/C [36] of 3.28%.

In the case of Cc1cccc(N(C)C(=O)C2C(O)CCN2c2nc(C)cc(C(F)(F)F)c2C#N)c1 (stereo unspecified) + Cc1cnc(CNC(=O)c2c(=O)c3ccc(N4CCCN(C)CC4)nc3n3c2sc2ccccc23)cn1, the IC50 (second compound 0.0316 µM) is reported as greater than 10000 nM, the IC50 (second compound 0.1 µM) is reported as greater than 10000 nM and the IC50 (second compound 0.316 µM) is reported as greater than 10000 nM. For the same compound, the IC50 (second compound 1 µM) was greater than 10000 nM, the IC50 (second compound 3.16 µM) was greater than 10000 nM and the IC50 (second compound 10 µM) was greater than 10000 nM. For the same compound, the viability, T/C [1] was 105%, the viability, T/C [2] was 87.2% and the viability, T/C [3] was 90.4%. The viability, T/C [4] was 92.2%, the viability, T/C [5] was 88.5% and the viability, T/C [6] was 79.7%. It also gave a viability, T/C [7] of 86.9%, a viability, T/C [8] of 88% and a viability, T/C [9] of 77.6%. The viability, T/C [10] was 76.2%, the viability, T/C [11] was 80.6% and the viability, T/C [12] was 79.5%. It also gave a viability, T/C [13] of 73.5%, a viability, T/C [14] of 73.1% and a viability, T/C [15] of 75.8%. For the same compound, the viability, T/C [16] was 69.7%, the viability, T/C [17] was 77.7% and the viability, T/C [18] was 69%. It also gave a viability, T/C [19] of 67.5%, a viability, T/C [20] of 66.5% and a viability, T/C [21] of 71.1%. The viability, T/C [22] was 66.4%, the viability, T/C [23] was 74.2% and the viability, T/C [24] was 70.3%. The viability, T/C [25] was 65.3%, the viability, T/C [26] was 60.9% and the viability, T/C [27] was 63.1%. The viability, T/C [28] was 55.9%, the viability, T/C [29] was 68.8% and the viability, T/C [30] was 67.8%. For the same compound, the viability, T/C [31] was 60.9%, the viability, T/C [32] was 66.7% and the viability, T/C [33] was 61.3%. For the same compound, the viability, T/C [34] was 66.2%, the viability, T/C [35] was 67.6% and the viability, T/C [36] was 66.8%.

CC1COCCN1c1cc(-c2ccnn2C)c2ccnc(-c3ccn[nH]3)c2n1 (stereo unspecified) + Cc1cnc(CNC(=O)c2c(=O)c3ccc(N4CCCN(C)CC4)nc3n3c2sc2ccccc23)cn1 was tested, and the IC50 (second compound 0.0316 µM) was less than 31.6 nM, the IC50 (second compound 0.1 µM) was less than 31.6 nM and the IC50 (second compound 0.316 µM) was less than 31.6 nM. The IC50 (second compound 1 µM) was less than 31.6 nM, the IC50 (second compound 3.16 µM) was 36.8 nM and the IC50 (second compound 10 µM) was less than 31.6 nM. The viability, T/C [1] was 41.9%, the viability, T/C [2] was 22.4% and the viability, T/C [3] was 13.9%. For the same compound, the viability, T/C [4] was 8.64%, the viability, T/C [5] was 5.53% and the viability, T/C [6] was 5.12%. It also gave a viability, T/C [7] of 42.5%, a viability, T/C [8] of 24.9% and a viability, T/C [9] of 14.8%. It also gave a viability, T/C [10] of 8.31%, a viability, T/C [11] of 5.49% and a viability, T/C [12] of 5.8%. For the same compound, the viability, T/C [13] was 41.5%, the viability, T/C [14] was 27.8% and the viability, T/C [15] was 17.2%. It also gave a viability, T/C [16] of 9.26%, a viability, T/C [17] of 5.7% and a viability, T/C [18] of 5.04%. The viability, T/C [19] was 46.4%, the viability, T/C [20] was 33% and the viability, T/C [21] was 21.6%. The viability, T/C [22] was 11.2%, the viability, T/C [23] was 6.82% and the viability, T/C [24] was 4.69%. The viability, T/C [25] was 52.4%, the viability, T/C [26] was 35.1% and the viability, T/C [27] was 25.4%. It also gave a viability, T/C [28] of 13.4%, a viability, T/C [29] of 6.44% and a viability, T/C [30] of 4.66%. The viability, T/C [31] was 48.2%, the viability, T/C [32] was 38.8% and the viability, T/C [33] was 24.1%. The viability, T/C [34] was 13.9%, the viability, T/C [35] was 7.41% and the viability, T/C [36] was 4.56%.
